# Measured values: patent US9006454B2, “Dihydroorotate dehydrogenase inhibitors” (Merck Serono S.A., priority 2009, dated 2015)
# How the values were obtained:
# DHODH = DHODH (Homo sapiens (Human), UniProt Q02127); experiment: DHODH activity assay (coupled enzyme assay, DCIP reduction, absorbance at 610 nm); assay type: biochemical; settings: for inhibition at 10 µM / inh @ 10 uM hDHODH (%): compound at 10 uM; for inhibition at 10 µM: read-out: inh @ 10 uM hDHODH (%)
# Jurkat cells = experiment: Measurement of cell proliferation (Jurkat cell), XTT assay; assay type: cell-based; settings: for inhibition at 1 µM: read-out: % inh Jurkat_cells @ 1 uM (%); for EC50: XTT cell viability
# Method in brief: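 Jurkat T cells, 100,000 per well in RPMI with 10% FBS, exposed 72 h at 37 °C to serial compound dilutions (typically from 10 μM, half-log steps, triplicate) at 0.25–0.5% DMSO. Viability by XTT/PMS, A465 after 2 h, media background subtracted, untreated cells as 100%; EC50 from curve fit.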
# [1] = Homo sapiens, Jurkat, compound at 1 uM
# Chain of DHODH (Q02127 whole entry): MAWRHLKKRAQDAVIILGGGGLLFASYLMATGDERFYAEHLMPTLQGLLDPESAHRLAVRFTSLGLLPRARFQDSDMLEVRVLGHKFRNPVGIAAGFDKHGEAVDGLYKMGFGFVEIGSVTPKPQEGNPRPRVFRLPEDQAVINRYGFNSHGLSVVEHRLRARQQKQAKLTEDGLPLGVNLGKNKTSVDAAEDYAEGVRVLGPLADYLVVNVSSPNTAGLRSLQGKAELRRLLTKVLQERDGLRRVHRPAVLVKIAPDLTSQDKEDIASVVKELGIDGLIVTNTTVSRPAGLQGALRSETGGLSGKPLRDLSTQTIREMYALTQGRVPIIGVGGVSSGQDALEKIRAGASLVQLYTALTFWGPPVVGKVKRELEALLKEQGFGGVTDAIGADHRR
SMILES,IC50 (DHODH),inhibition at 10 µM (DHODH),inhibition at 1 µM (Jurkat cells; [1]),"EC50 (Jurkat cells; Homo sapiens, Jurkat, 72 h)",inh @ 10 uM hDHODH (%) (DHODH),% inh Jurkat_cells @ 1 uM (%) (Jurkat cells; compound at 1 uM),EC50 (Jurkat cells; 72 hrs)
"Cc1cc(C(=O)O)c2nc(-c3c(F)c(F)c(-n4c(C)ccc4C)c(F)c3F)[nH]c2c1 [I82, 2-[4-(2,5-Dimethyl-pyrrol-1-yl)-2,3,5,6-tetrafluoro-phenyl]-6-methyl-1H-benzoimidazole-4-carboxylic acid]",5.6 nM,111%,106%,–,–,–,–
CONC(=O)c1cc(C)cc2nc(-c3c(F)c(F)c(-c4ccccc4)c(F)c3F)[nH]c12 [I98],2200 nM,66.2%,30.1%,–,–,–,–
Cc1cc(C(=O)O)c2nc(-c3ccc(-c4ccsc4)cc3)[nH]c2c1 [I23],–,77.8%,33.9%,–,–,–,–
COc1cc(-c2ccccc2)ccc1-c1nc2c(C(=O)O)cc(C)cc2[nH]1 [I46],1180 nM,97.7%,57.1%,–,–,–,–
O=C(O)c1cccc2[nH]c(-c3c(F)c(F)c(-c4cc(F)cc(F)c4)c(F)c3F)nc12 [I129],20 nM,90.8%,70.5%,–,–,–,–
O=C(O)c1cccc2[nH]c(-c3c(F)c(F)c(-c4ccc(OCc5ccccc5)cc4)c(F)c3F)nc12 [I132],378 nM,91.5%,67.8%,–,–,–,–
O=C(O)c1cccc2nc(-c3c(F)c(F)c(-c4cccc(OCc5ccccc5)c4)c(F)c3F)[nH]c12 [I107],26 nM,108%,99%,–,–,–,–
O=C(O)c1cc(F)cc2nc(-c3ccc4cc[nH]c4c3)[nH]c12 [I37],–,13.7%,6.9%,–,–,–,–
O=C(O)c1cccc2[nH]c(-c3ccc(S(=O)(=O)c4ccccc4)cc3)nc12 [I54],–,26.6%,8%,–,–,–,–
O=C(O)c1cccc2[nH]c(-c3c(F)c(F)c(-c4ccccc4)c(F)c3F)nc12 [I21],38 nM,97.3%,92.4%,238 nM,–,–,–
Cc1cc(C(=O)O)c2nc(-c3ccc(-c4ccc(CN5CCCC5)cc4)cc3)[nH]c2c1 [I164],–,59.3%,12.1%,–,–,–,–
Cc1cc(C(=O)O)c2nc(-c3ccc(-c4ccc(OCCCN5CCOCC5)cc4)cc3)[nH]c2c1 [I87],3020 nM,74.1%,35.7%,–,–,–,–
Cc1cc(C(=O)O)c2[nH]c(-c3cc4ccccc4[nH]3)nc2c1 [I40],–,23.3%,3.7%,–,–,–,–
Cc1cc(C(=O)O)c2nc(-c3ccc(-c4ccc(C(=O)NC5CCNCC5)cc4)cc3)[nH]c2c1 [I92],6640 nM,59.7%,16.3%,–,–,–,–
O=C(O)c1cccc2[nH]c(-c3c(F)c(F)c(-c4cccnc4)c(F)c3F)nc12 [I136],282 nM,89.5%,68.4%,–,–,–,–
O=C(O)c1cc(F)cc2nc(-c3ccc4[nH]ccc4c3)[nH]c12 [I36],–,16.1%,7.7%,–,–,–,–
Cc1cc(C(=O)O)c2[nH]c(-c3ccc(-c4ccccc4)cc3F)nc2c1 [I28],403 nM,96.3%,75.4%,206 nM,–,–,–
"O=C(O)c1cc(F)cc2nc(-c3ccc(-c4ccccc4)cc3F)[nH]c12 [Example 29, 6-Fluoro-2-(3-fluoro-biphenyl-4-yl)-3H-benzoimidazole-4-carboxylic acid]",–,93.4%,71.6%,–,–,–,–
Cc1cc(C(=O)O)c2nc(-c3ccc(-c4cccc(NC(=O)C5CCCN5)c4)cc3)[nH]c2c1 (stereo not drawn) [I150],–,30.5%,15.4%,–,–,–,–
Cc1cc(C(=O)O)c2[nH]c(-c3c(F)c(F)c(-c4ccccc4OCc4ccccc4)c(F)c3F)nc2c1 [I100],60 nM,104%,96.2%,–,–,–,–
O=C(O)c1cccc2[nH]c(-c3c(F)c(F)c(Oc4ccccc4)c(F)c3F)nc12 [I188],–,41.5%,17%,–,–,–,–
O=C(O)c1cccc2[nH]c(-c3ccc(-c4cccc(F)c4)cc3)nc12 [I17],3790 nM,65.2%,23.5%,–,–,–,–
Cc1cc(C(=O)O)c2[nH]c(-c3ccc(-c4ccc(OCCN5CCCCC5)cc4)cc3)nc2c1 [I154],–,49.1%,8.7%,–,–,–,–

SMILES,IC50 (DHODH),inhibition at 10 µM (DHODH),inhibition at 1 µM (Jurkat cells; [1]),"EC50 (Jurkat cells; Homo sapiens, Jurkat, 72 h)",inh @ 10 uM hDHODH (%) (DHODH),% inh Jurkat_cells @ 1 uM (%) (Jurkat cells; compound at 1 uM),EC50 (Jurkat cells; 72 hrs)
"Cc1cc(C(=O)O)c2[nH]c(-c3ccc(-c4ccccc4)nc3)nc2c1 [I75, 6-Methyl-2-(6-phenyl-pyridin-3-yl)-3H-benzoimidazole-4-carboxylic acid]",3820 nM,82.4%,39.3%,–,–,–,–
O=C(O)c1cc(Cl)cc2c1N=C(c1ccc(-c3ccccc3)cc1)C2 [I51],2320 nM,–,–,–,86.4%,39.5%,–
Cc1cc(C(=O)O)c2[nH]c(-c3ccc(-c4ccccc4F)cc3)nc2c1 [I26],373 nM,93.9%,75.9%,105 nM,–,–,–
O=C(O)c1cccc2[nH]c(-c3ccc(-c4ccc(OCc5ccccn5)cc4)cc3)nc12 [I182],–,57.7%,26.9%,–,–,–,–
O=C(O)c1cccn2nc(-c3ccc(-c4ccccc4)cc3)nc12 [I122],1200 nM,88%,55.4%,–,–,–,–
O=C(O)c1cccc2[nH]c(-c3ccc(-c4ccccc4F)cc3)nc12 [I15],490 nM,96.4%,64.4%,–,–,–,–
O=C(O)c1cccc2[nH]c(-c3ccc(Oc4c(F)cccc4F)cc3)nc12 [I56],1570 nM,83.2%,38.8%,–,–,–,–
Cc1cc(C(=O)O)c2nc(-c3ccc(-c4ccccc4)cn3)[nH]c2c1 [I53],7070 nM,59.8%,22.7%,–,–,–,–
Cc1cc(C(=O)O)c2nc(-c3c(F)c(F)c(-c4ccc(F)cc4)c(F)c3F)[nH]c2c1 [I134],118 nM,88.1%,77.9%,–,–,–,–
Cc1cc(C(=O)O)c2[nH]c(-c3c(F)c(F)c(-c4cccc(OCc5ccccc5)c4)c(F)c3F)nc2c1 [I105],13.6 nM,95.8%,91.9%,–,–,–,–
Cc1cc(C(=O)O)c2nc(-c3ccc(-c4ccc(Oc5ccc(C#N)cc5)cc4)cc3)[nH]c2c1 [I178],–,53.3%,37.6%,–,–,–,–
Cc1cc(C(=O)O)c2nc(-c3c(F)c(F)c(-c4ccsc4)c(F)c3F)[nH]c2c1 [I139],50 nM,105%,94.9%,–,–,–,–
Cc1cc(C(=O)NC(C)C)c2[nH]c(-c3c(F)c(F)c(-c4ccccc4)c(F)c3F)nc2c1 [I162],–,71.3%,28.5%,–,–,–,–
COc1cccc(-c2ccc(-c3nc4c(C(=O)O)cccc4[nH]3)c(F)c2)c1 [I3],616 nM,–,–,–,92.6%,–,753 nM
O=C(O)c1cc(F)cc2nc(-c3ccc(-c4ccc(F)cc4F)cc3F)[nH]c12 [I34],–,82%,41.8%,–,–,–,–
"Cc1cc(C(=O)O)c2[nH]c(-c3ccc(-c4ccccn4)cc3)nc2c1 [I74, 6-Methyl-2-(4-pyridin-2-yl-phenyl)-3H-benzoimidazole-4-carboxylic acid]",–,56.6%,18.4%,–,–,–,–
Cc1cc(C(=O)O)c2[nH]c(-c3ccc(-c4ccccc4F)cc3F)nc2c1 [I25],172 nM,94%,82%,98 nM,–,–,–
Cc1cc(C(=O)O)c2nc(-c3ccc(-c4ccc(OCc5ccccc5)cc4)cc3)[nH]c2c1 [I143],1230 nM,87%,42.2%,–,–,–,–
O=C(O)c1cccc2nc(-c3c(F)c(F)c(-c4cccs4)c(F)c3F)[nH]c12 [I124],500 nM,104%,80.1%,–,–,–,–
O=C(O)c1cccc2[nH]c(-c3ccc(Oc4ccccc4)cc3)nc12 [I10],2870 nM,80.3%,35.1%,–,–,–,–
Cc1cc(C(=O)O)c2nc(-c3ccc(-c4cccc(OCc5ccccc5)c4)cc3)[nH]c2c1 [I115],1200 nM,88%,52%,–,–,–,–
Cc1cc(C(=O)O)c2nc(-c3ccc(-c4ccc(S(N)(=O)=O)cc4)cc3)[nH]c2c1 [I174],–,43%,9%,–,–,–,–
